Consider 14 compounds from PubChem BioAssay (NCI).

Test systems include EKVX NSCLC; HL-60(TB) leukemia; HOP-18 NSCLC; KM12 colon; LXFL 529 NSCLC; SF-268 CNS; SK-MEL-28 melanoma; SW-620 colon; TK-10 renal; SR leukemia; MCF7 breast.
What all share (assay): DTP human tumour cell line panel, 48 h

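A five-concentration, 48-hour dose response in 96-well plates underlies each endpoint, interpolated linearly between surrounding concentrations. At the GI50, growth is halved. TGI is the concentration that stops growth completely.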

Usually TGI stands for the concentration at which net growth stops. Read a high TGI as lower sensitivity of the cells. As for `FC(F)(F)P1C2C=CC(CC2)C1(F)F` (stereo not drawn), the TGI in the experiment on EKVX NSCLC, with HL-60(TB) leukemia, in the experiment with HOP-18 NSCLC, in the experiment with KM12 colon, in the experiment with LXFL 529 NSCLC and with SF-268 CNS was more than 100 µM each time. Further, the TGI with SK-MEL-28 melanoma, with SW-620 colon and with TK-10 renal was more than 100 µM in each case.

As to `O=C(O)C(CS)NCc1c2ccccc2[n+]([O-])c2ccccc12` (stereo not drawn), the TGI is more than 100 µM in the experiment with EKVX NSCLC; 57 µM in the experiment on HL-60(TB) leukemia; more than 100 µM in the experiment with HOP-18 NSCLC; more than 100 µM in the experiment on KM12 colon; 84.3 µM in the experiment on LXFL 529 NSCLC; 91.3 µM in the experiment on SF-268 CNS. Besides, the TGI with SK-MEL-28 melanoma, with SW-620 colon and in the experiment with TK-10 renal was more than 100 µM throughout.

Regarding `Cc1c(C(=O)CSc2nc3ccc([N+](=O)[O-])cc3[nH]2)c(=O)n(-c2ccccc2)n1C`, the total growth inhibition concentration (TGI) in the experiment with HL-60(TB) leukemia, in the experiment on KM12 colon, with LXFL 529 NSCLC, in the experiment with SF-268 CNS, with SK-MEL-28 melanoma and in the experiment on SR leukemia was more than 100 µM throughout. Moreover, the TGI in the experiment on SW-620 colon and in the experiment with TK-10 renal was more than 100 µM each time.

The term GI50 denotes the concentration giving 50% growth inhibition. For `CC(=O)O[C@H]1C(=O)[C@@]2(C)C([C@H](OC(=O)c3ccccc3)[C@]3(O)C[C@H](OC(=O)[C@H](O)[C@H](NC(=O)c4ccccc4)c4ccc(Cl)cc4)C(C)=C1C3(C)C)C1(OC(C)=O)CO[C@@H]1C[C@@H]2O` (stereo partly drawn), the GI50 is 0.204 µM with EKVX NSCLC and 0.0171 µM with TK-10 renal. Further, the concentration for total growth inhibition (TGI) came out at 40.6 µM in the experiment on EKVX NSCLC, 26 µM with LXFL 529 NSCLC, 18.3 µM in the experiment on SW-620 colon and 14.4 µM with TK-10 renal.

With `CCN(CC)CCNC(=O)c1ccc([N+](=O)[O-])cc1OC`, the TGI with EKVX NSCLC, in the experiment on HL-60(TB) leukemia, with KM12 colon, in the experiment with LXFL 529 NSCLC, in the experiment on SF-268 CNS and with SK-MEL-28 melanoma was more than 100 µM in each case. The TGI with SR leukemia, with SW-620 colon and in the experiment on TK-10 renal was more than 100 µM in each case.

As to `CCC1(OC(=O)CN2CCN(CCO)CC2)C(=O)OCc2c1cc1n(c2=O)Cc2cc3ccccc3nc2-1` (stereo not drawn), the TGI in the experiment with EKVX NSCLC turned out to be 55.9 µM; with HL-60(TB) leukemia it was 3.24 µM; in the experiment on HOP-18 NSCLC, 25.8 µM; in the experiment on KM12 colon it was 4.49 µM; with LXFL 529 NSCLC it was 21.4 µM; in the experiment with MCF7 breast, 2.18 µM. In addition, the TGI in the experiment on SF-268 CNS was 13.2 µM; in the experiment with SK-MEL-28 melanoma it was 39.2 µM; in the experiment on SR leukemia, 0.305 µM; in the experiment with SW-620 colon it was 10.3 µM; in the experiment on TK-10 renal it was more than 100 µM.

As to `CCOc1ccc(N2C(=O)C3c4[nH]c5ccccc5c4C4CCC(C(C)(C)C)CC4C3C2=O)cc1` (stereo not drawn), the TGI in the experiment with EKVX NSCLC, with HL-60(TB) leukemia, in the experiment with HOP-18 NSCLC, with LXFL 529 NSCLC, in the experiment on SF-268 CNS and with SK-MEL-28 melanoma was more than 100 µM each time. Further, the TGI with SR leukemia and in the experiment with SW-620 colon was more than 100 µM throughout.

As to `O=C(Cc1ccccc1)NN1C(=O)C(Cl)C1c1cccc(O)c1` (stereo not drawn), the TGI was 45.7 µM in the experiment on EKVX NSCLC; 32.8 µM with HL-60(TB) leukemia; 36.5 µM with HOP-18 NSCLC; 22.8 µM in the experiment on LXFL 529 NSCLC; 53.7 µM with SF-268 CNS; 34.6 µM in the experiment on SK-MEL-28 melanoma. Besides, the TGI with SR leukemia worked out at 15.4 µM; in the experiment with SW-620 colon it was 16.7 µM; in the experiment with TK-10 renal, 34.1 µM.

Consider `O=C1C=C(N2CCCC2)C=C(N2CCCC2)C1`, for which the TGI in the experiment with EKVX NSCLC, in the experiment with HL-60(TB) leukemia, with HOP-18 NSCLC, with KM12 colon, in the experiment with LXFL 529 NSCLC and in the experiment on SF-268 CNS was more than 100 µM each time. Further, the concentration for total growth inhibition (TGI) in the experiment on SK-MEL-28 melanoma, in the experiment on SR leukemia, in the experiment with SW-620 colon and in the experiment with TK-10 renal was more than 100 µM throughout.

For the compound `O=C1CC2CC=C[C@H]3c4cc5c(cc4C(=O)N1C23)OCO5` (stereo partly drawn), the TGI in the experiment on EKVX NSCLC, in the experiment with HL-60(TB) leukemia, in the experiment on KM12 colon, in the experiment with LXFL 529 NSCLC, in the experiment with SF-268 CNS and in the experiment on SK-MEL-28 melanoma was more than 50 µM in each case. Besides, the concentration for total growth inhibition (TGI) with SW-620 colon and in the experiment with TK-10 renal was more than 50 µM in each case.

As to `Cc1cc(C)c(S(=O)(=O)N[C@@H](/C=C(\Br)CO)C(C)C)c(C)c1`, the TGI was more than 100 µM in the experiment with EKVX NSCLC; 40.3 µM in the experiment with HL-60(TB) leukemia; more than 100 µM with KM12 colon; 59.4 µM in the experiment with MCF7 breast; more than 100 µM in the experiment on SF-268 CNS; more than 100 µM with SK-MEL-28 melanoma. Further, the figures for the TGI with SR leukemia, in the experiment on SW-620 colon and with TK-10 renal were 68.8 µM, more than 100 µM and more than 100 µM, respectively.

For the compound `CC(NC1=CC(=O)c2ncccc2C1=O)C(O)c1ccccc1` (stereo not drawn), the TGI was 29.5 µM with EKVX NSCLC; 16.5 µM in the experiment with HL-60(TB) leukemia; 24.8 µM in the experiment with KM12 colon; 7.56 µM in the experiment on MCF7 breast; 53.4 µM in the experiment with SF-268 CNS; 10.9 µM in the experiment on SK-MEL-28 melanoma. Further, the total growth inhibition concentration (TGI) with SR leukemia is more than 100 µM; in the experiment on SW-620 colon, 19.8 µM; with TK-10 renal, more than 100 µM.

On to `O=S(=O)(c1cc(Cl)ccc1Cl)N1CCN(c2ccc(Cl)c(Cl)c2)CC1`, for which the TGI in the experiment on EKVX NSCLC is more than 100 µM; with HL-60(TB) leukemia it was more than 100 µM; in the experiment on KM12 colon, more than 100 µM; with MCF7 breast, more than 100 µM; with SF-268 CNS, 85.9 µM; with SK-MEL-28 melanoma it was more than 100 µM. For the same compound, the TGI was more than 100 µM with SR leukemia, more than 100 µM with SW-620 colon and 54 µM in the experiment on TK-10 renal.

In the case of `Nc1nc(Cl)c(C=O)c(NCC2(CO)CC(CCc3ccccc3)C2)n1` (stereo not drawn), the TGI in the experiment on EKVX NSCLC was 14.1 µM; with HL-60(TB) leukemia it was 3.34 µM; in the experiment with KM12 colon it was 28.5 µM; in the experiment on MCF7 breast, 51.8 µM; in the experiment with SF-268 CNS, 36.5 µM; in the experiment on SK-MEL-28 melanoma, 12.1 µM. Besides, the TGI in the experiment on SR leukemia was determined as 4.15 µM; in the experiment on SW-620 colon, 15.3 µM; in the experiment on TK-10 renal, 62.4 µM.
